Assay results published in patent EP4806899A1, “FUSED RING DERIVATIVE, PREPARATION METHOD THEREFOR AND USE THEREOF IN MEDICINE” (Shanghai Qilu Pharmaceutical Research and Development …, priority 2023, dated 2025).
“And” between values parts separate entries of the source, which are not always exact repeats. Equal values may be shown once.

How the values were obtained:
[1] = biological target: T1, human CYP11B2 enzyme (Homo sapiens, UniProt P19099); assay: Enzyme inhibition activity assay in G402 cells stably expressing human CYP11B2 (aldosterone production from 11-DOC, LC/MS); assay type: cell-based; conditions: 1 µM 11-DOC, 16 hours, aldosterone detected
T1 construct: the ORF of human CYP11B1 or CYP11B2 were transfected into G402 cells; expressed in transfected cells
T1 sequence (P19099 25-503): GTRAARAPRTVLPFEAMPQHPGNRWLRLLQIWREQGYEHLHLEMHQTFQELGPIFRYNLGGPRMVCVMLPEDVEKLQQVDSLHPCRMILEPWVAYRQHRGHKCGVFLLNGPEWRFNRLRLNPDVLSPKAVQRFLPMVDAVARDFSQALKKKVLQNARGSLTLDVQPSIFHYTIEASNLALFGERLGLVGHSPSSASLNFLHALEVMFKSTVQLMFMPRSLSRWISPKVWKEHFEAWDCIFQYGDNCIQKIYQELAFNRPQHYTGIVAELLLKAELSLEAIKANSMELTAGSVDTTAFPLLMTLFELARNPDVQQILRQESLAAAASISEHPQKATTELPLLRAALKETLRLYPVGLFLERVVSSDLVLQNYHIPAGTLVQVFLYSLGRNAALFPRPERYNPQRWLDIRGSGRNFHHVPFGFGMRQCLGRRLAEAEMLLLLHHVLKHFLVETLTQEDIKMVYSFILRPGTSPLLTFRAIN
Description: (§1) G402 cells (ATCC, CRL 1440) are epithelioid cells isolated from the kidney of a patient with renal failure and are a type of leiomyoblastoma. For the screening of highly specific CYP11B2 inhibitors, we specifically used G402 cell lines stably expressing human CYP11B2 enzyme or human CYP11B1 enzyme for experimental development.
(§2) Construction of Stably Transfected Cell Lines: Expression plasmids containing suitable promoters, suitable drug resistance markers, and the ORF of human CYP11B1 or CYP11B2 were transfected into G402 cells using standard techniques. The cells were then screened using the specific puromycin resistance marker. Monoclonal cells stably expressing human CYP11B2 were selected for expansion, and 11-deoxycorticosterone (11-DOC) was used as the specific substrate to evaluate enzyme activity based on aldosterone production. Monoclonal cells stably expressing human CYP11B1 were selected for expansion, and 11-deoxycortisol (11-DC) was used as the specific substrate, with cortisol production as the detection target for specific enzyme activity evaluation. The G402 cell lines stably expressing CYP11B1/CYP11B2 were cultured at 37 °C, 5% CO2, 95% air in complete medium (McCoy's 5A + 10% FBS + 1% PS + 0.5 µg/mL puromycin).
(§3) Enzyme Inhibition Activity Assay: CYP11B1 G402/CYP11B2 G402 cells were spread out flatly in cell culture plates. After 24 hours, the medium was changed to an enzyme testing system (DMEM/F12 + 2.5% charcoal-stripped FCS). Small molecule inhibitors at various concentrations were added. After 1 hour, appropriate concentrations of specific substrates (1 µM 11-DOC / 1 µM 11-DC) were added and co-incubated with the cells for 16 hours. Cells were then collected, and specific products were detected using LC/MS methods with an AB SCIEX TRIPLE QUAD 5500+, CTO-40S instrument (CYP11B2 enzyme detecting aldosterone; CYP11B1 enzyme detecting cortisol).
(§4) The IC50 values of the compounds were determined based on the G402 testing system. The dose-dependent inhibition of enzyme activity was calculated by plotting the added inhibitor concentration (x-axis) against the percentage of product inhibitory activity relative to the control group (y-axis) based on product formation at various compound concentrations. The following data were then fitted using the least squares method with XLfit 5.5.0 for a four-parameter logistic curve fit: [formula] • Y-axis: Percentage of product inhibitory activity relative to the control group; • logIC50: IC50 was determined using XLFit.
(§5) The maximum enzyme activity corresponds to the amount of control product steroid/aldosterone in the absence of inhibitor, set as 100%. The minimum enzyme activity corresponds to the amount of reference control product steroid/aldosterone in the presence of inhibitor. Table 3 Inhibitory Activity of the Compounds of the Present Disclosure on CYP11B2 and CYP11B1

[2] = biological target: T2, human CYP11B1 enzyme (Homo sapiens, UniProt P15538); assay: Enzyme inhibition activity assay in G402 cells stably expressing human CYP11B1 (cortisol production from 11-DC, LC/MS); assay type: cell-based; conditions: 1 µM 11-DC, 16 hours, cortisol detected
T2 construct: the ORF of human CYP11B1 or CYP11B2 were transfected into G402 cells; expressed in transfected cells
T2 sequence (P15538 25-503): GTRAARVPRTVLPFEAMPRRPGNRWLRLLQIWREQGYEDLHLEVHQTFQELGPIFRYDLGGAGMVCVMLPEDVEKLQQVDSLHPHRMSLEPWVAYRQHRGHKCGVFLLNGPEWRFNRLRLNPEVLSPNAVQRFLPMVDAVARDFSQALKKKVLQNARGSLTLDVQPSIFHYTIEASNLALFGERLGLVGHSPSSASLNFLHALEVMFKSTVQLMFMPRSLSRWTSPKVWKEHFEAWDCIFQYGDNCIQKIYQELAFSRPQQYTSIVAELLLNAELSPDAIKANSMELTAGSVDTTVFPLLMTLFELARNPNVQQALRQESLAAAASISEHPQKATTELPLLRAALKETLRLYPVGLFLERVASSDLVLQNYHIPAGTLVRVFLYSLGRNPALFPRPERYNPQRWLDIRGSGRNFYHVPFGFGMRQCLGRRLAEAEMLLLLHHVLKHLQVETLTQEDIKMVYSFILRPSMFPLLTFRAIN
Description: as §1, §2, §3, §4, §5

[3] = tested on: plasma hormone levels; assay: Pharmacodynamic determination in monkeys: plasma aldosterone and cortisol after ACTH stimulation; assay type: in vivo, cynomolgus monkeys; conditions: P.O.
Description: Cynomolgus monkeys were used as test animals to evaluate the pharmacodynamics of multiple compounds of the present disclosure on plasma hormone levels following gavage administration (P.O.) at various doses such as 0.1 mpk (and others, e.g., 0.03 mpk, 0.1 mpk, and 0.3 mpk).
Male cynomolgus monkeys, Suzhou Xishan Zhongke Laboratory Animal Co., Ltd. Animal production license number: SCXK (Su) 2023-0001, animal use license number: SYXK (Su) 2020-0017.
Male cynomolgus monkeys were performed gavage administration (P.O.) at doses set as: 0 mpk (vehicle group, i.e., Veh group), 0.03 mpk, 0.1 mpk, and 0.3 mpk. In each group, 15 µg/kg ACTH was injected intramuscularly 1 hour after dosing. Continuous venous blood samples were collected from each group at 1 hour before administration and at multiple time points after administration. Blood samples were collected, and plasma aldosterone and its precursors, as well as plasma corticosterone and its precursors, at multiple time points were analyzed using LC/MS methods.
Venous blood samples were collected at 1-2 hours before gavage administration and at multiple time points after intramuscular injection of ACTH (adrenocorticotropic hormone). The samples were placed in EDTA-K2 tubes, centrifuged at 4 °C, 2600 g for 10 minutes to separate plasma, which was then stored at -80 °C.
• HPLC: Waters ACQUITY UPLC I-Class PLUS; • Mass spectrometry conditions: Triple Quad™ 7500 (Serial No. FA224362212) mass spectrometer; • Chromatographic column: phenomenex kinetex 2.6µm C8 100A 50 × 4.60 mm; • Mobile phase: mobile phase A was 0.5 mM ammonium fluoride solution containing 0.1% formic acid; mobile phase B was MeOH.
The data in Figs. 1, 2, 3, 4, and 5 are analyzed based on PD changes at 30 minutes after ACTH stimulation. The percentage of PD relative to the control group (Veh group) at 30 minutes after ACTH stimulation serves as the main basis for pharmacodynamic evaluation, calculated according to the following formula: [formula] where PD refers to aldosterone or cortisol. Table 8 Pharmacodynamic Evaluation of Example Compound C44 in Monkeys

[4] = in vivo; conditions: male, Sprague-Dawley, rat, plasma, po, 10 mg/kg
Description: • 1) 50 µL of plasma sample was precipitated by adding 200 µL of acetonitrile, vortex mixed, and centrifuged for 15 minutes. • 2) The processed supernatant was diluted with water and analyzed by LC/MS/MS to determine the concentration of the test compound.
Pharmacokinetic parameters were calculated using WinNonlin 8.3. […] Cmax represents the maximum plasma concentration, T1/2 represents the terminal elimination half-life, MRTInf represents the mean residence time, and AUC represents the area under the plasma concentration-time curve.

[5] = Pharmacokinetic determination in mice after gavage administration (P.O.); assay type: in vivo; conditions: male, CD-1, mouse, po, 10 mg/kg, plasma; for AUC(0-t): read-out: AUC0-24
Description: Mice and rats were used as test animals to study the pharmacokinetic behavior of the compounds of the present disclosure in plasma following gavage administration (P.O.). Plasma samples were collected at specific time points, compound concentrations in plasma were detected by LC-MS/MS, and pharmacokinetic parameters were calculated to evaluate the pharmacokinetics.
• Mice, CD-1, male, Zhejiang Vital River Laboratory Animal Technology Co., Ltd. • Rats, Sprague-Dawley, male, Zhejiang Vital River Laboratory Animal Technology Co., Ltd., Shanghai Jihui Experimental Animal Breeding Co., Ltd.
After administration to mice and rats, venous blood samples of 0.03 mL and 0.2 mL, respectively, were collected at 0.0833 (IV), 0.25, 0.5, 1, 2, 4, 8, and 24 hours and placed in EDTA-K2 test tubes. Plasma was separated by centrifugation at 4 °C, 4000 g for 5 minutes and stored at -80 °C.
• 1) 10 µL of plasma sample was precipitated by adding 200 µL of acetonitrile, vortex mixed, and centrifuged for 15 minutes. • 2) The processed supernatant was diluted with water and analyzed by LC/MS/MS to determine the concentration of the test compound.
Pharmacokinetic parameters were calculated using WinNonlin 8.3. The pharmacokinetic parameters for mice P.O. are shown in Table 4, and for rats P.O. in Table 5. Cmax represents the maximum plasma concentration, T1/2 represents the terminal elimination half-life, MRTInf represents the mean residence time, and AUC represents the area under the plasma concentration-time curve. Table 4 Pharmacokinetic Parameters of the Compounds of the Present Disclosure in Mice

[6] = 0.03 mpk, 30min after ACTH stimulation, plasma
[7] = 0.1 mpk, 30min after ACTH stimulation, plasma
[8] = 0.3 mpk, 30min after ACTH stimulation, plasma

Row | SMILES | IC50 [1] | IC50 [2] | Aldosterone ([3]; 0.03 mpk, 0h, plasma) | Aldosterone [3, 6] | Aldosterone ([3]; 0.1 mpk, 0h, plasma) | Aldosterone [3, 7] | Aldosterone ([3]; 0.3 mpk, 0h, plasma) | Aldosterone [3, 8] | AUC(0-t) [4] | Cmax [4] | MRT inf [4] | half-life [4] | Cmax [5] | MRT inf [5] | half-life [5] | AUC(0-t) [5] | Cortisol ([3]; 0.03 mpk, 0h, plasma) | Cortisol [3, 6] | Cortisol ([3]; 0.1 mpk, 0h, plasma) | Cortisol [3, 7] | also measured
1 | CCC(=O)N[C@@H]1CCCc2c(-c3cc(C)c4c(ccc(=O)n4C)c3)cncc21 [Compound C43] | 0.0167 µM | 7.22 µM | 0.16 ng/mL | 0.26 ng/mL | 0.16 ng/mL | 0.15 ng/mL | 0.20 ng/mL | 0.14 ng/mL | 345 µM·h | 47.9 µM | 6.24 h | 4.77 h |  |  |  |  |  |  |  |  | Cortisol ([3]; 0.03 mpk, 0h, plasma (Table 11)): 268.3 ng/mL; Cortisol ([3]; 0.03 mpk, 30min after ACTH stimulation, plasma (Table 11)): 358.7 ng/mL; Cortisol ([3]; 0.1 mpk, 0h, plasma (Table 11)): 282.0 ng/mL; Cortisol ([3]; 0.1 mpk, 30min after ACTH stimulation, plasma (Table 11)): 386.0 ng/mL; Cortisol ([3]; 0.3 mpk, 0h, plasma (Table 11)): 276.0 ng/mL; Cortisol ([3]; 0.3 mpk, 30min after ACTH stimulation, plasma (Table 11)): 346.7 ng/mL
2 | CCC(=O)N[C@@H]1CCCc2c(-c3cc(F)c4c(ccc(=O)n4C)c3)cncc21 [Compound C41] | 0.0111 µM | 4.9 µM |  |  |  |  |  |  |  |  |  |  | 25 µM | 5.07 h | 2.83 h | 209 µM·h |  |  |  |  | 
3 | CCC(=O)N[C@@H]1CCCc2c(-c3ccc4c(c3)COC(=O)N4C)cncc21 [Compound C07] | 0.0132 µM | 1.15 µM |  |  |  |  |  |  |  |  |  |  | 30.2 µM | 4.36 h | 2.54 h | 223 µM·h |  |  |  |  | 
4 | CCC(=O)N[C@@H]1CCOc2c(-c3ccc4c(ccc(=O)n4C)c3)cncc21 [Compound A09] | 0.0082 µM and 0.0138 µM | 3.38 µM and 18.8 µM | 0.20 ng/mL | 0.34 ng/mL | 0.24 ng/mL | 012 ng/mL | 0.08 ng/mL | 0.07 ng/mL | 522 µM·h | 52.1 µM | 8.19 h | 5.91 h |  |  |  |  | 214.0 ng/mL | 285.3 ng/mL | 256.7 ng/mL | 345.0 ng/mL | Cortisol ([3]; 0.3 mpk, 0h, plasma): 286.7 ng/mL; Cortisol [3, 8]: 388.3 ng/mL
5 | CCC(=O)N[C@@H]1CCCc2c(-c3cc(F)c4c(c3)COC(=O)N4C)cncc21 [Compound C44] | 0.187 µM |  | 0.07 ng/mL | 0.28 ng/mL | 0.24 ng/mL | 0.20 ng/mL | 0.07 ng/mL | 0.07 ng/mL |  |  |  |  | 53.1 µM | 4.78 h | 2.28 h | 421 µM·h | 279.5 ng/mL | 384.0 ng/mL | 455.0 ng/mL | 538.5 ng/mL | Cortisol ([3]; 0.3 mpk, 0h, plasma): 265.5 ng/mL; Cortisol [3, 8]: 396.0 ng/mL
